{
  "source": "patent US20200283384A1",
  "about": "“ANTIBACTERIAL COMPOUNDS AND METHODS OF USE THEREOF” (Wayne State University, priority 2016, published 2020)",
  "key": {"[1]": {"system": "24 strains of S. aureus (SA1-SA24)", "experiment": "Broth micro-dilution MIC against 24 strains of S. aureus", "format": "cell-based", "details": "for MIC: Staphylococcus aureus, read-out: Compound MIC", "method": "Compounds were tested for their anti-bacterial activity against 56 clinical isolates including 24 clinical isolates of methicillin resistant S. aureus (MRSA) and methicillin-susceptible S. aureus (MSSA), 8 strains of Enterococcus, 8 strains of Acinetobacter baumannii, 8 strains of Klebsiella pneumoniae, and 8 strains of Pseudomonas aeruginosa using a standard broth micro-dilution method as recommended by the Clinical and Laboratory Standard Institute (CLSI, M100, s23).\nHN18 HN19, and HN34 were tested by a broth micro-dilution method to determine their minimal inhibitory concentration (MIC) against 24 strains of S. aureus (SA1-SA24) (Table 2). […]. Furthermore, the results for HN18 and HN34 were consistent across four repeated experiments. […]"}, "[2]": {"system": "S. aureus clinical isolates", "experiment": "Synergistic effect with oxacillin (oxacillin MIC alone and in presence of SIC)", "format": "cell-based, Staphylococcus aureus", "details": "Staphylococcus aureus", "method": "The synergistic effect (interaction) of HN18 and HN34 with different antibiotics against S. aureus clinical isolates was studied. The oxacillin MIC values of 8 clinical isolates of Staphylococcus aureus were determined. The oxacillin MIC of the same isolates were also determined after they were exposed to SIC of HN18, HN34 (Table 5). […] Column 2 and 3 show the oxacillin MIC value of the same isolates in presence of SIC of HN18 and HN34 respectively."}, "S. aureus isolates": {"system": "S. aureus isolates", "details": "for MIC: Staphylococcus aureus"}},
  "note": "Where two headings read alike, the source gives them in different places.",
  "data": [
    {"smiles": "COc1cc(/C=C/C(=O)C(=Cc2ccc(F)c(F)c2)C(=O)/C=C/c2ccc(O)c(OC)c2)ccc1O", "note": "[HN19, (1E,6E)-1,7-bis(4-hydroxy-3-methoxyphenyl)hepta-1,6-diene{4(3,4 difluorobenzylidene)}-3,5-dione]", "values": [
      {"measurement": "Effect against the panel of S. aureus strains", "setting": "[1]; 24 strains SA1-SA24, broth micro-dilution", "result": "effective"},
      {"measurement": "MIC", "setting": "[1]; isolate SA1, experiment I", "result": 1, "unit": "µg/mL"},
      {"measurement": "MIC", "setting": "[1]; isolate SA1, experiment II", "result": 8, "unit": "µg/mL"},
      {"measurement": "MIC", "setting": "[1]; isolate SA1, experiment III", "result": 8, "unit": "µg/mL"},
      {"measurement": "MIC", "setting": "[1]; isolate SA1, experiment IV", "result": 16, "unit": "µg/mL"},
      {"measurement": "MIC", "setting": "[1]; isolate SA2, experiment I", "result": 1, "unit": "µg/mL"},
      {"measurement": "MIC", "setting": "[1]; isolate SA2, experiment II", "result": 4, "unit": "µg/mL"},
      {"measurement": "MIC", "setting": "[1]; isolate SA2, experiment III", "result": 4, "unit": "µg/mL"},
      {"measurement": "MIC", "setting": "[1]; isolate SA2, experiment IV", "result": 8, "unit": "µg/mL"},
      {"measurement": "MIC", "setting": "[1]; isolate SA3, experiment I", "result": 1, "unit": "µg/mL"},
      {"measurement": "MIC", "setting": "[1]; isolate SA3, experiment II", "result": 4, "unit": "µg/mL"},
      {"measurement": "MIC", "setting": "[1]; isolate SA3, experiment III", "result": 8, "unit": "µg/mL"},
      {"measurement": "MIC", "setting": "[1]; isolate SA3, experiment IV", "result": 8, "unit": "µg/mL"},
      {"measurement": "MIC", "setting": "[1]; isolate SA4, experiment I", "result": 2, "unit": "µg/mL"},
      {"measurement": "MIC", "setting": "[1]; isolate SA4, experiment II", "result": 4, "unit": "µg/mL"},
      {"measurement": "MIC", "setting": "[1]; isolate SA4, experiment III", "result": 8, "unit": "µg/mL"},
      {"measurement": "MIC", "setting": "[1]; isolate SA4, experiment IV", "result": 1, "unit": "µg/mL"},
      {"measurement": "MIC", "setting": "[1]; isolate SA5, experiment I", "result": 0.5, "unit": "µg/mL"},
      {"measurement": "MIC", "setting": "[1]; isolate SA5, experiment II", "result": 2, "unit": "µg/mL"},
      {"measurement": "MIC", "setting": "[1]; isolate SA5, experiment III", "result": 4, "unit": "µg/mL"},
      {"measurement": "MIC", "setting": "[1]; isolate SA5, experiment IV", "result": 8, "unit": "µg/mL"},
      {"measurement": "MIC", "setting": "[1]; isolate SA6, experiment I", "result": 0.5, "unit": "µg/mL"},
      {"measurement": "MIC", "setting": "[1]; isolate SA6, experiment II", "result": 4, "unit": "µg/mL"},
      {"measurement": "MIC", "setting": "[1]; isolate SA6, experiment III", "result": 4, "unit": "µg/mL"},
      {"measurement": "MIC", "setting": "[1]; isolate SA6, experiment IV", "result": 8, "unit": "µg/mL"},
      {"measurement": "MIC", "setting": "[1]; isolate SA7, experiment I", "result": 0.5, "unit": "µg/mL"},
      {"measurement": "MIC", "setting": "[1]; isolate SA7, experiment II", "result": 4, "unit": "µg/mL"},
      {"measurement": "MIC", "setting": "[1]; isolate SA7, experiment III", "result": 4, "unit": "µg/mL"},
      {"measurement": "MIC", "setting": "[1]; isolate SA7, experiment IV", "result": 8, "unit": "µg/mL"},
      {"measurement": "MIC", "setting": "[1]; isolate SA8, experiment I", "result": 0.5, "unit": "µg/mL"},
      {"measurement": "MIC", "setting": "[1]; isolate SA8, experiment II", "result": 4, "unit": "µg/mL"},
      {"measurement": "MIC", "setting": "[1]; isolate SA8, experiment III", "result": 8, "unit": "µg/mL"},
      {"measurement": "MIC", "setting": "[1]; isolate SA8, experiment IV", "result": 8, "unit": "µg/mL"},
      {"measurement": "MIC", "setting": "[1]; isolate SA9, experiment I", "result": 0.5, "unit": "µg/mL"},
      {"measurement": "MIC", "setting": "[1]; isolate SA9, experiment II", "result": 0.5, "unit": "µg/mL"},
      {"measurement": "MIC", "setting": "[1]; isolate SA10, experiment I", "result": 2, "unit": "µg/mL"},
      {"measurement": "MIC", "setting": "[1]; isolate SA10, experiment II", "result": 4, "unit": "µg/mL"},
      {"measurement": "MIC", "setting": "[1]; isolate SA11, experiment I", "result": 1, "unit": "µg/mL"},
      {"measurement": "MIC", "setting": "[1]; isolate SA11, experiment II", "result": 2, "unit": "µg/mL"},
      {"measurement": "MIC", "setting": "[1]; isolate SA12, experiment I", "result": 2, "unit": "µg/mL"},
      {"measurement": "MIC", "setting": "[1]; isolate SA12, experiment II", "result": 4, "unit": "µg/mL"},
      {"measurement": "MIC", "setting": "[1]; isolate SA13, experiment I", "result": 1, "unit": "µg/mL"},
      {"measurement": "MIC", "setting": "[1]; isolate SA13, experiment II", "result": 4, "unit": "µg/mL"},
      {"measurement": "MIC", "setting": "[1]; isolate SA14, experiment I", "result": 2, "unit": "µg/mL"},
      {"measurement": "MIC", "setting": "[1]; isolate SA14, experiment II", "result": 2, "unit": "µg/mL"},
      {"measurement": "MIC", "setting": "[1]; isolate SA15, experiment I", "result": 1, "unit": "µg/mL"},
      {"measurement": "MIC", "setting": "[1]; isolate SA15, experiment II", "result": 1, "unit": "µg/mL"},
      {"measurement": "MIC", "setting": "[1]; isolate SA16, experiment I", "result": 0.25, "unit": "µg/mL"},
      {"measurement": "MIC", "setting": "[1]; isolate SA16, experiment II", "result": 0.5, "unit": "µg/mL"},
      {"measurement": "MIC", "setting": "[1]; isolate SA17, experiment I", "result": 2, "unit": "µg/mL"},
      {"measurement": "MIC", "setting": "[1]; isolate SA17, experiment II", "result": 4, "unit": "µg/mL"},
      {"measurement": "MIC", "setting": "[1]; isolate SA18, experiment I", "result": 1, "unit": "µg/mL"},
      {"measurement": "MIC", "setting": "[1]; isolate SA18, experiment II", "result": 4, "unit": "µg/mL"},
      {"measurement": "MIC", "setting": "[1]; isolate SA19, experiment I", "result": 1, "unit": "µg/mL"},
      {"measurement": "MIC", "setting": "[1]; isolate SA19, experiment II", "result": 4, "unit": "µg/mL"},
      {"measurement": "MIC", "setting": "[1]; isolate SA20, experiment I", "result": 1, "unit": "µg/mL"},
      {"measurement": "MIC", "setting": "[1]; isolate SA20, experiment II", "result": 4, "unit": "µg/mL"},
      {"measurement": "MIC", "setting": "[1]; isolate SA21, experiment I", "result": 2, "unit": "µg/mL"},
      {"measurement": "MIC", "setting": "[1]; isolate SA21, experiment II", "result": 8, "unit": "µg/mL"},
      {"measurement": "MIC", "setting": "[1]; isolate SA22, experiment I", "result": 2, "unit": "µg/mL"},
      {"measurement": "MIC", "setting": "[1]; isolate SA22, experiment II", "result": 4, "unit": "µg/mL"},
      {"measurement": "MIC", "setting": "[1]; isolate SA23, experiment I", "result": 2, "unit": "µg/mL"},
      {"measurement": "MIC", "setting": "[1]; isolate SA23, experiment II", "result": 4, "unit": "µg/mL"},
      {"measurement": "MIC", "setting": "[1]; isolate SA24, experiment I", "result": 1, "unit": "µg/mL"},
      {"measurement": "MIC", "setting": "[1]; isolate SA24, experiment II", "result": 4, "unit": "µg/mL"}
    ]},
    {"smiles": "Cc1onc(-c2ccccc2)c1C(=O)N[C@@H]1C(=O)N2[C@@H]1SC(C)(C)[C@@H]2C(=O)O", "note": "[Oxacillin, reference compound]", "values": [
      {"measurement": "MIC", "setting": "[2]; isolate SA3, oxacillin tested alone", "result": "> 16", "unit": "µg/mL"},
      {"measurement": "MIC", "setting": "[2]; isolate SA4, oxacillin tested alone", "result": "> 16", "unit": "µg/mL"},
      {"measurement": "MIC", "setting": "[2]; isolate SA5, oxacillin tested alone", "result": "> 16", "unit": "µg/mL"},
      {"measurement": "MIC", "setting": "[2]; isolate SA9, oxacillin tested alone", "result": "> 16", "unit": "µg/mL"},
      {"measurement": "MIC", "setting": "[2]; isolate SA10, oxacillin tested alone", "result": 16, "unit": "µg/mL"},
      {"measurement": "MIC", "setting": "[2]; isolate SA11, oxacillin tested alone", "result": 8, "unit": "µg/mL"},
      {"measurement": "MIC", "setting": "[2]; isolate SA15, oxacillin tested alone", "result": "> 16", "unit": "µg/mL"},
      {"measurement": "MIC", "setting": "[2]; isolate SA18, oxacillin tested alone", "result": "> 16", "unit": "µg/mL"},
      {"measurement": "MIC", "setting": "S. aureus isolates; read-out: Oxacillin MIC", "result": "> 16", "unit": "µg/mL"},
      {"measurement": "Oxacillin MIC", "setting": "S. aureus isolates; isolates SA1, SA2, prior to exposure to sub-inhibitory concentration of HN18 and HN34", "result": "> 16", "unit": "µg/mL"}
    ]},
    {"smiles": "O=C(N[C@H](CO)[C@H](O)c1ccc([N+](=O)[O-])cc1)C(Cl)Cl", "note": "[chloramphenicol]", "values": [
      {"measurement": "MIC", "setting": "S. aureus isolates; read-out: Chloramphenicol MIC", "result": "> 40", "unit": "µg/mL"}
    ]}
  ]
}
